Values of other authors in patent US10188773B2, “Compositions and devices of poly-4-hydroxybutyrate” (Tepha, Inc., priority 2013, dated 2019).

Details: metabolism in the body; Nelson et al. 1981, Sendelbeck et al. 1985

O=C(O)CCCO [4HB, 4-hydroxybutyric acid]
half-life: approximately 27 minutes
